This test relates to Mac1+Gr1+ myeloid immunoregulatory cells. Put plainly: FACS quantitation of Mac1+Gr1+ myeloid suppressor (MySC/MIR) cells in spleen and lymph node of treated mice. The settings on record: for number of MIR cells: daily i.p. injection at 60 μM for 7 days; for number of Mac1+Gr1+ MySC (MDSC): daily injection at 125 μM for 7 days. It is filed as in vivo, mouse. As to the method: FACS quantitation of Mac1^+Gr1^+ Myeloid-Derived Suppressor Cells (Mac1^+Gr1^+ MySC) (A,B) and FoxP3^+CD4^+CD25^+ Treg cells (C,D) in spleen and lymph node of C57BL6 mice treated with NSC13480, vehicle or non-manipulated mice (Normal). ***p<0.001; *p<0.05.
In addition, both donor and host Treg cells can also limit or abrogate GvHD. […] (Paraiso, K. H., et al. 2007. J Immunol 178:2893). […] Adult mice were treated for 7 days with a daily injection of NSC13480 at 125 μM. The frequency of MySC and Treg cells was tested in the spleens of mice treated with NSC13480, the vehicle used for delivery of NSC 13480 and normal, untreated mice.
Expansion of the Mac1^+Gr1^+ MIR cell compartment can suppress GvHD. [Ghansah T, et al., J Immunol (2004) 173(12):7324-7330; Paraiso K H, et al., J Immunol (2007) 178(5):2893-2900; MacDonald K P, et al., J Immunol (2005) 174(4):1841-1850] Thus, the ability 3α-aminocholestane to expand the MIR compartment in peripheral lymphoid tissues, where GvHD and organ transplant rejection are primed, was tested. Adult mice were treated for 7 days with a daily intraperitoneal (i.p.) injection of 3α-aminocholestane at 60 μM. We then compared the frequency of MIR cells in the spleens and LN of mice treated with 3α-aminocholestane to that of control mice treated with either their respective vehicles or to unmanipulated mice. […] Thus, consistent with the findings in mice genetically ablated for SHIP1 expression during adult physiology [Paraiso K H, et al., J Immunol (2007) 178(5):2893-2900], inhibition of SHIP1 activity in adult mice expands the MIR cell compartment in peripheral lymphoid tissues.
Antibody staining and flow cytometry (Examples 1-6): Anti-CD16/32 was co-incubated with the samples to block Fc receptor binding. Antibodies used for staining included: NK1.1 (PK136); CD3e (145-2C11); Ly49G2 (4D11); Gr-1 (RB6-8C5); Mac-1(M1/70); CD11c (HL3); CD4 (GK1.5); CD25 (PC61) and were obtained from BD Pharmingen (San Jose, Calif.). FoxP3 (FJK-16s) was purchased from eBioScience (San Diego, Calif.). All samples were acquired on a FACSCalibur and analyzed using FlowJo8.7.1. For viable staining, dead cells were excluded from the analysis following cytometer acquisition of data by exclusion of the 7AAD dye. For staining of FoxP3, viable cells were first stained for extacellular markers followed by fixation and permeabilization to stain for the intracellular FoxP3.
Use of SHIP1 inhibitory compounds for in vitro and in vivo studies: For in vitro studies 3α-aminocholestane was suspended in 100% ethanol. […]
Antibody staining and flow cytometry (Examples 7-9): Anti-CD16/32 was incubated with the samples to block Fc receptor binding. […] All samples were acquired on a FACSCalibur and analyzed using FlowJo8.7.1. […]

This is an account of results in patent publication US9006221B2, “Method of modulating ship activity” (H. Lee Moffitt Cancer Center and Reserach Institute, Inc., priority 2008, dated 2015).

Structures are written as SMILES.

`CC(C)CCC[C@@H](C)[C@H]1CC[C@H]2[C@@H]3CC[C@H]4C[C@H](N)CC[C@]4(C)[C@H]3CC[C@]12C` [NSC23922, (3R,5S,8R,9S,10S,13R,14S,17R)-10,13-dimethyl-17-[(2R)-6-methylheptan-2-yl]-2,3,4,5,6,7,8,9,11,12,14,15,16,17-tetradecahydro-1H-cyclopenta[a]phenanthren-3-amine]: the “number of MIR cells” value was “increased significantly” (lymph node) and “increased significantly” (spleen).
As to `OC(c1cc(-c2ccccc2)nc2c1ccc1ccccc12)C1CCCCN1` (stereo not shown) [NSC13480, (2-phenylbenzo[h]quinolin-4-yl)-piperidin-2-ylmethanol], the “number of Mac1+Gr1+ MySC (MDSC)” value is “increased significantly” (lymph node) and “increased significantly” (spleen).
